Experimental data as given in publication PMC10454678, “Synthesis of hydroxy benzoin/benzil analogs and investigation of their antioxidant, antimicrobial, enzyme inhibition, and cytotoxic activities” (Turkish Journal of Chemistry, 2021).
In brackets after ≈: the same amount, converted by molar mass. Several values for one entry are separate records, joined by “and”; a condition that tells them apart may be missing. Equal values may be shown once. Read-outs that look alike come from different tables or passages of the source.

Columns and labels:
[1] = tested on: human retinal normal cell line (RPE); assay: MTT cell proliferation, RPE
[2] = tested on: human cervical cancer cell line (HeLa); assay: MTT cell proliferation, HeLa
[3] = tested on: Candida albicans ATCC60193; assay: MIC, microdilution, C. albicans; type: cell-based; conditions: Candida albicans, ATCC60193; fungus; YEPD broth, 48 h, 36 °C; read-out: MIC Ca
[4] = tested on: Staphylococcus aureus ATCC25923; assay: MIC, microdilution, S. aureus; type: cell-based; conditions: Staphylococcus aureus
[5] = Copper ions reducing activity (CUPRAC); conditions: Trolox equivalents; 30 min dark, room temperature, 450 nm
α-glucosidase = assay: α-Glucosidase inhibition; type: biochemical; conditions: PNPG, pH 6.8, 37 °C, 400 nm
Procedure: It was incubated at 37 °C for 15 min. Similarly, an enzyme-free blank was prepared. The reaction was stopped when sodium carbonate (50 μL, 0.2 M) was added.

[6] = tested on: Streptococcus mutans RSKK07038; assay: MIC, microdilution, S. mutans; type: cell-based; conditions: Streptococcus mutans, RSKK07038; Gram (+); BHI broth, 72 h, 36 °C; read-out: MIC Sm
Bacillus cereus Roma709 = assay: MIC, microdilution, B. cereus; type: cell-based; conditions: Bacillus cereus
[7] = Ferric reducing antioxidant power (FRAP) assay; conditions: Trolox equivalents; compounds 2 mg/mL, 30 °C 30 min, 595 nm
[8] = tested on: Escherichia coli ATCC 25922; assay: MIC, microdilution, E. coli; type: cell-based; conditions: Escherichia coli
acetylcholinesterase = acetylcholinesterase (Homo sapiens, UniProt P22303); assay: biochemical; conditions: Tris-HCl pH 8.0, 25 °C, 405 nm; read-out: AChE IC50 (converted)
[9] = DPPH radical scavenging activity; conditions: 0.1 mM DPPH, 50 min dark, 517 nm
[10] = tested on: Yersinia pseudotuberculosis ATCC911; assay: microbe, parasite or virus in culture; type: cell-based; conditions: Yersinia pseudotuberculosis, ATCC911, read-out: MIC Yp
[11] = tested on: Mycobacterium smegmatis ATCC607; assay: MIC, microdilution, M. smegmatis; type: cell-based; conditions: Tub., BHI broth, 36 °C; for MIC: Mycolicibacterium smegmatis, ATCC607, 72 h, read-out: MIC Ms
butyrylcholinesterase = butyrylcholinesterase (Homo sapiens, UniProt P06276); assay: biochemical; conditions: Tris-HCl pH 8.0, 25 °C, 405 nm; read-out: BChE IC50 (converted)
[12] = tested on: Pseudomonas aeruginosa ATCC27853; assay: MIC, microdilution, P. aeruginosa; type: cell-based; conditions: Pseudomonas aeruginosa, ATCC27853; Gram (-); Mueller-Hinton broth, 18-24 h, 36 °C; read-out: MIC Pa
[13] = tested on: Enterococcus faecalis ATCC29212; assay: MIC, microdilution, E. faecalis; type: cell-based; conditions: Enterococcus faecalis, ATCC29212; Gram (+); Mueller-Hinton broth, 18-24 h, 36 °C; read-out: MIC Ef
[14] = ATCC25922, Gram (-), Mueller-Hinton broth, 18-24 h, 36 °C, read-out: MIC Ec
[15] = ATCC25923, Gram (+), Mueller-Hinton broth, 18-24 h, 36 °C, read-out: MIC Sa
[16] = ROMA709, Gram (+), Mueller-Hinton broth, 18-24 h, 36 °C, read-out: MIC Bc

Sequence of butyrylcholinesterase (P06276 29-602): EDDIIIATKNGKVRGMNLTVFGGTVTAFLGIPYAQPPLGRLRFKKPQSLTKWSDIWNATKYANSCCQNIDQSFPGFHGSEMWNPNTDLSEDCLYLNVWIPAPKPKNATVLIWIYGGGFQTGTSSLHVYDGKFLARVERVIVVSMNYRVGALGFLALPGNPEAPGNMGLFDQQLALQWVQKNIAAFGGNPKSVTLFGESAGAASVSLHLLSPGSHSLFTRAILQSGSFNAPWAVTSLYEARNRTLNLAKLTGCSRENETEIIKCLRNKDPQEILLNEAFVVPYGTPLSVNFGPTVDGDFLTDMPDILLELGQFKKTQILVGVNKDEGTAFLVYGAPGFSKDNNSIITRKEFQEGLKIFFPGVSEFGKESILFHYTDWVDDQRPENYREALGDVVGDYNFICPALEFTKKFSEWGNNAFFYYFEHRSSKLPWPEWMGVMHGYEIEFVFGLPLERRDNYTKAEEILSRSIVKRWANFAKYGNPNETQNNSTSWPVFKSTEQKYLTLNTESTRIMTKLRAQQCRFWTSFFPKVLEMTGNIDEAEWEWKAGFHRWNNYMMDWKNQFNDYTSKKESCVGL
Sequence of acetylcholinesterase (P22303 32-614, species assumed): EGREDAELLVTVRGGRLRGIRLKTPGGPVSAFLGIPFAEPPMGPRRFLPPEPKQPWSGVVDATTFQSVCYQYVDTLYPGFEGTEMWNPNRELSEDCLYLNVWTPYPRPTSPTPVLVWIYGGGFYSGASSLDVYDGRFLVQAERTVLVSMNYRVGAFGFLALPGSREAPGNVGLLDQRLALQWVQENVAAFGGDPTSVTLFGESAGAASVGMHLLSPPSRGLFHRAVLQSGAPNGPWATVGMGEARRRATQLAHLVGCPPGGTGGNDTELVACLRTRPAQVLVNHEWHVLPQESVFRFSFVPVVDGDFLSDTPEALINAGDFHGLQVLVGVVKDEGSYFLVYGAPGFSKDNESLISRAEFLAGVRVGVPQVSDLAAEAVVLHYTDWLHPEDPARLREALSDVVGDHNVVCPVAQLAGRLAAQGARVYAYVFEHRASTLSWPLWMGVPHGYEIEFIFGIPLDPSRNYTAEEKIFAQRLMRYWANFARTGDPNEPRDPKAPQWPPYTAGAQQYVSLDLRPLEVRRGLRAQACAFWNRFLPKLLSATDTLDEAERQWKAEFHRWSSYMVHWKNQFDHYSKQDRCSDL

Row | SMILES | MIC [3] | MIC ([4]; ATCC25923, read-out: MIC Sa) | CUPRAC, copper reducing antioxidant power [5] | α-Glucosidase IC50 (α-glucosidase) | MIC [6] | MIC (Bacillus cereus Roma709; ROMA709, read-out: MIC Bc) | FRAP, the iron reducing antioxidant power [7] | MIC ([8]; ATCC25922, read-out: MIC Ec) | IC50 (acetylcholinesterase) | DPPH radical scavenging capacity (SC50) [9] | MIC [10] | MIC [11] | IC50 (butyrylcholinesterase) | MIC [12] | MIC [13] | MIC [8, 14] | MIC [4, 15] | MIC (Bacillus cereus Roma709; [16]) | further results
1 | N.N.[Cl][Pt][Cl] [Cisplatin, reference compound] | – | – | – | – | – | – | – | – | – | – | – | – | – | – | – | – | – | – | GI50 RPE normal cell line ([1]; MTT, 24 h incubation): 1.56 µg/mL; IC50 RPE normal cell line ([1]; MTT, 24 h incubation): 58.77 µg/mL; GI50 HeLa cell line ([2]; MTT, 24 h incubation): 1.13 µg/mL; IC50 HeLa cell line ([2]; MTT, 24 h incubation): 42.76 µg/mL
2 | O=C(c1ccc(O)cc1)C(O)c1ccccc1 (centres unmarked) [Compound 2, 2-Hydroxy-1-(4-hydroxyphenyl)-2-phenylethanone] | 516 µg/mL (≈ 2260 µM) | 1030 µg/mL (≈ 4520 µM) | 140.00 ± 11.5 μg/mL trolox/gram DW | 547.97 µg/mL | 1030 µg/mL (≈ 4520 µM) | 1030 µg/mL (≈ 4520 µM) | 1881 ± 75.5 μg/mL trolox/gram DW | 1030 µg/mL (≈ 4520 µM) | 1.07 mM | 13.78 ± 1.3 mg/mL | 1030 µg/mL (≈ 4520 µM) | 129 µg/mL (≈ 565 µM) | 323 µM | 2060 µg/mL (≈ 9050 µM) | – | – | – | – | –
3 | O=C(c1cc(O)cc(O)c1)C(O)c1ccccc1 (centres unmarked) [Compound 3, 2-Hydroxy-1-(3,5-dihydroxyphenyl)-2-phenylethanone] | 414 µg/mL (≈ 1700 µM) | 207 µg/mL (≈ 848 µM) | 90.00 ± 6.8 μg/mL trolox/gram DW | 812.10 µg/mL | 414 µg/mL (≈ 1700 µM) | 207 µg/mL (≈ 848 µM) | 1111 ± 47.9 μg/mL trolox/gram DW | – | 1.63 mM | 8.72 ± 0.26 mg/mL | 1660 µg/mL (≈ 6780 µM) | 103 µg/mL (≈ 422 µM) | 592 µM | 207 µg/mL (≈ 848 µM) | 820 µg/mL (≈ 3360 µM) | 820 µg/mL (≈ 3360 µM) | – | – | –
4 | O=C(c1cccc(O)c1)C(O)c1cccc(O)c1 (centres unmarked) [Compound 4, 1,2-Bis(3-hydroxyphenyl)-2-hydroxyethanone] | 1280 µg/mL (≈ 5240 µM) | – | 398.33 ± 22.1 μg/mL trolox/gram DW | >1000 µg/mL | – | – | 1534 ± 75.0 μg/mL trolox/gram DW | – | 0.454 mM | 8.16 ± 0.3 mg/mL | 640 µg/mL (≈ 2620 µM) | 160 µg/mL (≈ 655 µM) | 462 µM | 320 µg/mL (≈ 1310 µM) | – | 320 µg/mL (≈ 1310 µM) | 640 µg/mL (≈ 2620 µM) | 160 µg/mL (≈ 655 µM) | GI50 ([1]; Homo sapiens, 24 h, read-out: GI50 RPE normal cell line): 1.15 µg/mL (≈ 4.71 µM); IC50 ([1]; Homo sapiens, 24 h, read-out: IC50 RPE normal cell line): 30.3 µg/mL (≈ 124 µM); GI50 ([2]; Homo sapiens, HeLa, 24 h, read-out: GI50 HeLa cell line): 1.12 µg/mL (≈ 4.59 µM); IC50 ([2]; Homo sapiens, HeLa, 24 h, read-out: IC50 HeLa cell line): 42.7 µg/mL (≈ 175 µM)
5 | O=C(c1ccc(O)cc1)C(O)c1cccc(O)c1 (centres unmarked) [Compound 5, 2-Hydroxy-2-(3-hydroxyphenyl)-1-(4-hydroxyphenyl)ethanone] | – | – | 1113.33±64 μg/mL trolox/gram DW and 1113.33 ± 64.9 μg/mL trolox/gram DW | >1000 µg/mL | 48 µg/mL (≈ 197 µM) | – | 2090 ± 101.4 μg/mL trolox/gram DW | – | 3.23 mM | 8.12 ± 1.2 mg/mL | 775 µg/mL (≈ 3170 µM) | 48 µg/mL (≈ 197 µM) | > 4090 µM | 96 µg/mL (≈ 393 µM) | 1550 µg/mL (≈ 6350 µM) | 387 µg/mL (≈ 1580 µM) | 96 µg/mL (≈ 393 µM) | 48 µg/mL (≈ 197 µM) | –
6 | O=C(C(=O)c1cccc(O)c1)c1ccccc1 [Compound 8, 1-(3-Hydroxyphenyl)-2-phenylethane-1,2-dione] | 41 µg/mL (≈ 181 µM) | – | 1095.00 ± 18.1 μg/mL trolox/gram DW | >1000 µg/mL | 21 µg/mL (≈ 92.8 µM) | – | 1678 ± 64.6 μg/mL trolox/gram DW | 167 µg/mL (≈ 738 µM) | > 4.42 mM | 13.56 ± 1.2 mg/mL | 167 µg/mL (≈ 738 µM) | 9 to 18 µg/mL (≈ 39.8 to 79.6 µM) | > 4420 µM | 11 µg/mL (≈ 48.6 µM) | 21 µg/mL (≈ 92.8 µM) | – | 11 µg/mL (≈ 48.6 µM) | 11 µg/mL (≈ 48.6 µM) | MIC Ms ([11]; 72 h): 11 µg/mL (≈ 48.6 µM)
